Measurements published in patent publication US10071081B2, “Compositions of 1,2,4-oxadiazole benzoic acid compounds and methods for their use” (PTC Therapeutics, Inc., priority 2003, dated 2018).
Where a name gives a salt, the structure may show the parent alone.

Test system: luciferase reporter construct containing a UGA premature termination codon
Test: cell-based luciferase reporter assay
Design: species or system Human; key to Activity: *****: both extremely high potency and extremely high efficacy of protein synthesis; ****: extremely high potency of protein synthesis and very high efficacy; ****: very high potency of protein synthesis and extremely high efficacy; ***: both very high potency and very high efficacy of protein synthesis; **: very high potency of protein synthesis and significant efficacy; **: significant potency of protein synthesis and very high efficacy; *: significant potency and efficacy of protein synthesis
Settings: ranking combining potency and efficacy of protein synthesis; UGA luciferase reporter stably transfected in 293T Human Embryonic Kidney cells
Description: Activity measurements in Table I were performed in a cell-based luciferase reporter assay (as described in Section 4.2) comprising a luciferase reporter construct containing a UGA premature termination codon that was stably transfected in 293T Human Embryonic Kidney cells. A small molecule, 3-[3-(4-Isopropyl-phenyl)-2,5-dioxo-imidazolidin-1-yl]-benzoic acid, known to allow readthrough of premature termination codons was used was used as an internal standard. Activity measurements are based on the qualitative relation between the minimum concentration of compound required to produce a given protein in a cell (potency) and the maximum amount of protein produced by the cell (efficacy). Potency and efficacy activities are ranked as either extremely high, very high or significant. The combination of these activities is used to determine the activity ranking.
Two assays were developed for use in high throughput screens to identify small molecules that promote nonsense suppression. Each assay utilized luciferase because it is a functional reporter gene assay (light is only produced if the protein is functional) and it is extremely sensitive (Light intensity is proportional to luciferase concentration in the nM range). The first assay is a cell-based luciferase reporter assay and the second is a biochemical assay consisting of rabbit reticulocyte lysate and a nonsense-containing luciferase reporter mRNA. In the cell-based assay, a luciferase reporter construct containing a UGA premature termination codon was stably transfected in 293T Human Embryonic Kidney cells. In the biochemical assay, mRNA containing a UGA premature termination codon was used as a reporter in an in vitro translation reaction using rabbit reticulocyte lysate supplemented with tRNA, hemin, creatine kinase, amino acids, KOAc, Mg(OAc)2, and creatine phosphate. […] Synthetic mRNA was prepared in vitro using the T7 promoter and the MegaScript in vitro transcription kit (Ambion).
To determine whether compounds also function in vivo, a stable cell line harboring the UGA nonsense-containing luciferase gene was treated with selected compounds. Cells were grown in standard medium supplemented with 1% penicillin-streptomycin (P/S) and 10% fetal bovine serum (FBS) to 70% confluency and split 1:1 the day before treatment. On the following day, cells were trypsinized and 40,000 cells were added to each well of a 96-well tissue culture dish. Serial dilutions of each compound were prepared to generate a six-point dose response curve spanning 2 logs (30 μM to 0.3 μM). The final concentration of the DMSO solvent remained constant at 1% in each well. Cells treated with 1% DMSO served as the background standard, and cells treated with gentamicin served as a positive control.

O=C(O)c1cccc(-c2noc(Cc3ccc(F)cc3)n2)c1 [Compound 48, 3-[5-(4-Fluoro-benzyl)-[1,2,4]oxadiazol-3-yl]-benzoic acid]
Activity: ****

O=C(O)c1cccc(-c2noc(-c3ccc(C(F)(F)F)cc3)n2)c1 [Compound 17, 3-[5-(4-Trifluoromethyl-phenyl)-[1,2,4]oxadiazol-3-yl]-benzoic acid]
Activity: *****

O=C(O)c1cccc(-c2noc(-c3ccno3)n2)c1 [Compound 52, 3-(5-Isoxazol-5-yl-[1,2,4]oxadiazol-3-yl)-benzoic acid]
Activity: **

O=C(O)c1cccc(-c2noc(Cc3cccs3)n2)c1 [Compound 32, 3-(5-Thiophen-2-ylmethyl-[1,2,4]oxadiazol-3-yl)-benzoic acid]
Activity: ****

O=C(O)c1cccc(-c2noc(-c3cc(C(F)(F)F)cc(C(F)(F)F)c3)n2)c1 [Compound 16, 3-[5-(3,5-Bis-trifluoromethyl-phenyl)-[1,2,4]oxadiazol-3-yl]-benzoic acid]
Activity: ****

O=C(O)c1cccc(-c2noc(-c3cc4ccccc4s3)n2)c1 [Compound 65, 3-(5-Benzo[b]thiophen-2-yl-[1,2,4]oxadiazol-3-yl)-benzoic acid]
Activity: *****

O=C(O)c1cccc(-c2noc(-c3ccc(Cl)cc3F)n2)c1 [Compound 73, 3-[5-(4-Chloro-2-fluoro-phenyl)-[1,2,4]oxadiazol-3-yl]-benzoic acid]
Activity: ****

COc1ccccc1-c1nc(-c2cccc(C(=O)O)c2)no1 [Compound 19, 3-[5-(2-Methoxy-phenyl)-[1,2,4]oxadiazol-3-yl]-benzoic acid]
Activity: ***

O=C(O)c1cccc(-c2noc(-c3ccc(F)cc3F)n2)c1 [Compound 57, 3-[5-(2,4-Difluoro-phenyl)-[1,2,4]oxadiazol-3-yl]-benzoic acid]
Activity: ****

O=C(O)c1cccc(-c2noc(-c3ccc(N4CCCC4)nc3)n2)c1 [Compound 82, 3-[5-(6-Pyrrolidin-1-yl-pyridin-3-yl)-[1,2,4]oxadiazol-3-yl]-benzoic acid]
Activity: ****

O=C(O)c1cccc(-c2noc(-c3ccc(-c4ccccc4)cc3F)n2)c1 [Compound 75, 3-[5-(3-Fluoro-biphenyl-4-yl)-[1,2,4]oxadiazol-3-yl]-benzoic acid]
Activity: ****

O=C(O)c1cccc(-c2noc(-c3ccc(-c4ccccc4)cc3F)n2)c1 [Compound 81, 3-[5-(3-Fluoro-biphenyl-4-yl)-[1,2,4]oxadiazol-3-yl]-benzoic acid]
Activity: **

O=C(O)c1cccc(-c2noc(C3CCCC3)n2)c1 [Compound 31, 3-(5-Cyclopentyl-[1,2,4]oxadiazol-3-yl)-benzoic acid]
Activity: ****

O=C(O)c1cccc(-c2noc(-c3ccc(F)cc3)n2)c1 [Compound 05, 3-[5-(4-Fluoro-phenyl)-[1,2,4]oxadiazol-3-yl]-benzoic acid]
Activity: *****

O=C(O)c1cccc(-c2noc(-c3cccnc3)n2)c1 [Compound 58, 3-(5-Pyridin-3-yl-[1,2,4]oxadiazol-3-yl)-benzoic acid]
Activity: ***

CCCCCOc1ccc(-c2nc(-c3cccc(C(=O)O)c3)no2)cc1 [Compound 02, 3-[5-(4-Pentyloxy-phenyl)-[1,2,4]oxadiazol-3-yl]-benzoic acid]
Activity: ***

COCCOCCOC(=O)c1cccc(-c2noc(-c3ccccc3F)n2)c1 [Compound 88, 3-[5-(2-Fluoro-phenyl)-[1,2,4]oxadiazol-3-yl]-benzoic acid 2-(2-methoxy-ethoxy)-ethyl ester]
Activity: **

O=C([O][Na+])c1cccc(-c2noc(-c3ccccc3F)n2)c1 [Compound 78, 3-[5-(2-Fluoro-phenyl)-[1,2,4]oxadiazol-3-yl]-benzoic acid sodium salt]
Activity: *****

O=C(O)c1cccc(-c2noc(-c3c(F)cccc3F)n2)c1 [Compound 36, 3-[5-(2,6-Difluoro-phenyl)-[1,2,4]oxadiazol-3-yl]-benzoic acid]
Activity: ****
